# Results as given in US20250032569A1, “COMPOSITION, IN PARTICULAR COSMETIC FORMULATION, COMPRISING A VERBASCOSIDE EXTRACT” (MEDENA AG, priority 2021, published 2025).
# How the values were obtained:
# [1] = In vitro spectrophotometric SPF calculated by the Sayre equation (Eq. 1); type: physicochemical
# Method: Each sample (1 ml) was placed in a 1 cm quartz cell. The absorbance was measured between 250-600 nm at an interval of every 1 nm using a Varian UV/Vis spectrophotometer (Cary 50 Scan). The following parameters were measured and calculated for each sample assuming standard application to the skin—2 mg/cm^2: • the SPF values. • the critical wavelength λC • the UVA/UVB ratio 1. […]
# Each sample (1 ml) was placed in a 1 cm quartz cell. The absorbance was measured between 250-600 nm at an interval of every 1 nm using a Varian UV/Vis spectrophotometer (Cary 50 Scan). The following parameters were measured and calculated for each sample assuming standard application to the skin—2 mg/cm^2: • the SPF values. • the critical wavelength λC • the UVA/UVB ratio
# The SPF values in vitro were calculated according to the method described by Sayre et al., (Sayre, R M; Agin, P P; LeVee, G J; Marlowe, E. A comparison of in vivo and in vitro testing of sunscreening formulas, Photochem. Photobiol. 1979, 29, 559-566). The calculation was done using Equation 1: […]
# where Ss(λ) is the spectral irradiance, Ser(λ) is the CIE erythema action spectrum and T(λ) is the transmission of the sunscreen. The values of Ss(λ) and Ser(λ) were taken from the literature (B. L. Diffey, J. Robson. A new substrate to measure sunscreen protection factors throughout the ultraviolet spectrum, J. Soc. Cosmet. Chem. 1989, 40, 127-133). […]
# SPF values were calculated using Eq. 1 for sun protective cosmetics applied at 2 mg/cm^2 (standard application).
# The same methods and equations as in the case of plant extracts were applied.
# Solutions of sunscreens at concentrations 0.001% were prepared in duplicate and UV-visible absorption spectra were recorded over the range of 250-600 nm (FIG. 1). On the basis of these spectra, the transmission of the sunscreen (T) was found from monochromatic absorbance values at wavelength λ: T=10^−A(λ).
# The SPF in vitro was calculated according to the method described by Sayre et al., (Sayre, R M; Agin, P P; LeVee, G J; Marlowe, E. A comparison of in vivo and in vitro testing of sunscreening formulas, Photochem. Photobiol. 1979, 29, 559-566) following equation 1: […]
# where Ss(λ) is the spectral irradiance, Ser(λ) the CIE erythema action spectrum and T(λ) the trans-mission of the sunscreen. Data for Ss(λ) and Ser(λ) are available in the literature (B. L. Diffey, J. Robson. A new substrate to measure sunscreen protection factors throughout the ultraviolet spectrum, J. Soc. Cosmet. Chem. 1989, 40, 127-133).
# The SPF values were calculated using Eq 1 with the application conditions 2 mg/cm^2 (Standard application recommended by the European Agency).
# The SPF value for lotions were calculated using Eq. 1 for three application conditions at 2 mg/cm^2 (standard application), 2.5 mg/cm^2 and 3 mg/cm^2. In the same Table 22, critical wavelength and the UVA/UVB ratios are shown.
# [2] = Critical wavelength (λC) from absorption spectra (Eq. 2); type: physicochemical; details: for critical wavelength: chemical sunscreen, no concentration stated
# Method: The Critical Wavelength λC is the wavelength, where the area under the absorbance spectrum for the irradiated product from 290 nm to λC is equal to 90% of the integral value of the absorbance spectrum from 290 to 400 nm and was calculated using Eq. 2:
# where A (λ)=monochromatic absorbance values at wavelength λ. The critical wavelength was determined for all samples in order to assess a degree of UVA protection. In cases where the critical wavelength is lower than 370 nm, the protection from UVA is less evident.
# The Critical Wavelength λC value for the test product was defined as that wavelength where the area under the absorbance spectrum of the sample from 290 nm to λC is 90% of the integral of the absorbance spectrum from 290 to 400 nm and is calculated using Eq. 2:
# [formula] • A(λ)=monochromatic absorbance values at wavelength λ
# [3] = UVA/UVB ratio from absorption spectra (Eq. 3) and Boots UVA Star Rating; type: physicochemical; details: for ratio UVA/UVB: chemical sunscreen, no concentration stated
# Method: Critical Wavelength (λC) and the UVA/UVB ratios were also calculated from the absorption spectra and were collected in Table 2. […] According to these International indications, aqueous solutions of Haberlea rhodopensis with different concentrations of myconoside can be attributed to the group of good protection (2 UVA Star Rating).
# In order to further characterize solutions as skin photo-protectors from UVA, the UVA/UVB ratio was calculated using Eq. 3: […]
# In order to characterize the ability of creams to protect skin against UVA the UVA/UVB ratio was calculated using Eq. 3: […]
# [4] = Photo-stability under solar imitating UVA+UVB irradiation; type: physicochemical; details: absorption spectra without and after up to 40 min irradiation
# [5] = SPF calculated by modified Sayre method; type: physicochemical
# Description: In the following Table 20, there are SPF values obtained in vitro spectrophotometrically, which have been calculated by a classical Sayre method (Sayre, R M; Agin, P P; LeVee, G J; Marlowe, E. A comparison of in vivo and in vitro testing of sunscreening formulas, Photochem. Photobiol. 1979, 29, 559-566) and modified Sayre method, which gives results similar to those obtained in the in vivo tests recommended by COLIPA.
# • (1) For water insoluble chemical filters, the modified Sayre method gives results close to those calculated by Simulator-Calculator (BASF) and the in vivo tests. The Simulator-Calculator uses the modified Sayre method assuming an exponentiation equal to 0.827 (X^0.827). • (2) For water soluble natural filters, the same modified Sayre method would give results close to those obtained by the in vivo tests (predicted by Simulator-Calculator). Examples of Cosmetic Compositions with Fully Natural Sun Protective Factors • 1. Sun protective lotion SPF 50+, high UV-A protection • 2. Sun protective cream SPF 50+, high UV-A protection • 3. Sun protective serum for pregnant and milking women SPF 50+, high UV-A protection • 4. Sun protective milk for babies SPF 50+, high UV-A protection • 5. Sun protective lotion SPF 20-30, high UV-A protection for people with highly sensitive skin E. Analysis of Sun Protective Parameters of Two Lotions and Cream Containing Lippia citriodora Extract with 40% of Verbascoside.
# [6] = Solubility of chemical UV filters
# [7] = UV filter 0.5% in sun protective cosmetic (Table 20)
# [8] = UV filter 1.0% in sun protective cosmetic (Table 20)
# [9] = UV filter 2.5% in sun protective cosmetic (Table 20)
# [10] = chemical UV filter 0.5% in sun protective solution (Tables 12-19)
# [11] = chemical UV filter 1% in sun protective solution (Tables 12-19)
# [12] = chemical UV filter 2.5% in sun protective solution (Tables 12-19)
# [13] = chemical UV filter 5% in sun protective solution (Tables 12-19)
# [14] = chemical UV filter 10% in sun protective solution (Tables 12-19)
# [15] = chemical UV filter 0.5% in sun protective solution
# [16] = chemical UV filter 1% in sun protective solution
# [17] = chemical UV filter 2.5% in sun protective solution
# [18] = chemical UV filter 5% in sun protective solution
# [19] = chemical UV filter 10% in sun protective solution
# [20] = UV filter 0.5% in sun protective cosmetic
# [21] = UV filter 1.0% in sun protective cosmetic
# [22] = UV filter 2.5% in sun protective cosmetic
# [23] = UV filter 5% in sun protective cosmetic
# [24] = UV filter 10% in sun protective cosmetic
Compound,"SPF values calculated by the Sayre equation [1, 7]","SPF values calculated by the Sayre equation [1, 8]","SPF values calculated by the Sayre equation [1, 9]","SPF values [1, 10]","SPF values [1, 11]","SPF values [1, 12]","SPF values [1, 13]","SPF values [1, 14]","Critical wavelength (λC) [2, 15] [nm]","Critical wavelength (λC) [2, 16] [nm]","Critical wavelength (λC) [2, 17] [nm]","Critical wavelength (λC) [2, 18] [nm]","Critical wavelength (λC) [2, 19] [nm]",critical wavelength [2] [nm],"UVA/UVB [3, 15]","UVA/UVB [3, 16]","UVA/UVB [3, 17]","UVA/UVB [3, 18]","UVA/UVB [3, 19]",ratio UVA/UVB [3],also measured
CCCCC(CC)COc1ccc(-c2nc(-c3ccc(OC)cc3)nc(-c3ccc(OCC(CC)CCCC)cc3O)n2)c(O)c1 (stereo not drawn) [Bis-ethylhexyloxyphenol methoxyphenyl triazine],4.8,19,93,5.7,25,60,89,107,365,365,365,365,365,365,0.50,0.50,0.50,0.50,0.50,0.50,"SPF ([1]; chemical UV filter 1.5%): 60; SPF ([1]; chemical UV filter 2.0%): 89; Photo-stability to solar imitating UVA+UVB irradiation [4]: HIGHLY unstable; SPF values calculated by Modified Sayre [5, 20]: 4.2; SPF values calculated by Modified Sayre [5, 21]: 7.5; SPF values calculated by Modified Sayre [5, 22]: 16.1; SPF values calculated by Modified Sayre [5, 23]: 29; SPF values calculated by Modified Sayre [5, 24]: 50"
"CCCCCCCCCCCCc1cc(C)cc(-n2nc3ccccc3n2)c1O [benzotriazolyl dodecyl p-cresol, Benzotriazolyl dodecyl p-cresol]",2.1,5,29,2.4,6,41,105,157,363,363,363,363,363,363,0.62,0.62,0.62,0.62,0.62,0.62,"SPF values calculated by the Sayre equation ([1]; UV filter 5% in sun protective cosmetic (Table 20)): 91; SPF values calculated by the Sayre equation ([1]; UV filter 10% in sun protective cosmetic (Table 20)): 132; SPF values calculated by Modified Sayre [5, 20]: 2.0; SPF values calculated by Modified Sayre [5, 21]: 3.1; SPF values calculated by Modified Sayre [5, 22]: 5.4; SPF values calculated by Modified Sayre [5, 23]: 8.3; SPF values calculated by Modified Sayre [5, 24]: 12.7; SPF values calculated by Modified Sayre ([5]; UV filter 20% in sun protective cosmetic): 19; Solubility in water [6]: insoluble in water"
